{"source": "patent EP0319316A2", "about": "“Griseolic acid monoesters, their preparation and use” (SANKYO COMPANY LIMITED, priority 1987, dated 1989)", "key": {"[1]": {"parameters": "species or system Male albino rabbits", "settings": "rabbit, in vivo"}, "[2]": {"system": "water load-induced elevation of intraocular pressure", "test": "Effect on water load-induced elevation of intraocular pressure, water load test (Experiment 2)", "format": "in vivo, male New Zealand white rabbits", "settings": "2.0% sample solution", "method": "In the following Experiments 1 to 6, the test animals used were male New Zealand white rabbits, each weighing about 2.5 kg, raised in a room where the room temperature, relative humidity and lighting time were controlled to be 23° C, 60% and from 07:00 to 19:00, respectively. The animals were chosen from those where no abnormalities could be detected in their eyes by observation with the naked eye. They were given water freely but feed was restricted. The compound under test was dissolved in 100 mM of a sodium phosphate buffer solution (pH 7.2) containing a small amount of a 0.1 N aqueous solution of sodium hydroxide. In the case of timolol maleate, a 0.5% w/v eye lotion (Timoptol 0.5%, Santen Pharm. Co.) was used as such. Each rabbit was anesthetized with urethane (1.0 g/kg, i.v.), and the IOP values of both eyes were measured. Immediately thereafter, 50 µℓ of the sample solution was applied to one eye (test eye). To the other eye (control eye), 50 µℓ of the vehicle alone was applied. Ninety minutes after this application, the values of IOP were measured and then the water load test was performed as follows. Sixty ml/kg of tap water was given compulsorily per os to the anesthetized rabbit, and then the values of IOP for both eyes were measured with the passage of time. In this Experiment, the test compound was the compound of Example 19(b), i.e. 9'-(4-acetoxybenzyl) griseolate."}, "eyes": {"system": "eyes", "test": "Eye irritation by the Draize method (Experiment 11)", "format": "in vivo, male New Zealand white rabbit", "settings": "2% by weight solution, 0.05 ml three times a day for seven days, right eye", "method": "The irritation to the eyes caused by solutions of the compound of Example 19(b) was determined by the Draize method [J.H. Draize et af., J. Pharmacol. Exp. Ther., 82,377 (1944)] and evaluated by the method of Kay and Calandra [J.H. Kay and J.C. Calandra, J. Soc. Cosmet. Chem., 13, 281 (1962)].\nThe test solution employed was a simple solution of 2% by weight of the test compound in 100 mM of a sodium phosphate buffer (pH 7.2) for injections and adjusted to a pH value of from 7 to 8, as required.\nA male New Zealand white rabbit of body weight about 2.5 kg was placed in a pillory to fix its head. 0.05 ml of the test solution was instilled into its right eye three times a day (at 09:00, 13:00 and 17:00) for seven days. The symptoms experienced by the anterior portion of the right eye were observed every day at 18:00 over a period of seven days, and the irritation observed was scored."}, "[3]": {"system": "Normal intraocular pressure", "test": "Normal intraocular pressure lowering effect (Experiment 3)", "format": "in vivo, male New Zealand white rabbits", "settings": "2.0% sample solution, p < 0.05", "method": "In the following Experiments 1 to 6, the test animals used were male New Zealand white rabbits, each weighing about 2.5 kg, raised in a room where the room temperature, relative humidity and lighting time were controlled to be 23° C, 60% and from 07:00 to 19:00, respectively. The animals were chosen from those where no abnormalities could be detected in their eyes by observation with the naked eye. They were given water freely but feed was restricted. The compound under test was dissolved in 100 mM of a sodium phosphate buffer solution (pH 7.2) containing a small amount of a 0.1 N aqueous solution of sodium hydroxide. In the case of timolol maleate, a 0.5% w/v eye lotion (Timoptol 0.5%, Santen Pharm. Co.) was used as such. The corneal surface was anesthetized by the application of oxybuprocain hydrochloride (Benoxil 0.4% solution, Santen Pharm. Co.), and the IOP was measured by means of an Alcon Applanation Pneumatograph (Japan Alcon) in rabbits. The measurements were carried out 2 or 3 times for each eye, and the mean value was calculated and is regarded as the value of IOP. After determination of the IOP, 25 µℓ of a sample solution was applied to one eye (test eye) three times every two minutes, and the same volume of the vehicle alone was applied to the other eye (control eye). The values of IOP of both eyes were measured with the passage of time. In this Experiment, the test compound was the compound of Example 19(b)."}, "Male F344 rats": {"system": "Male F344 rats", "test": "Four-day toxicity in the rat (Experiment 8)", "format": "in vivo", "method": "Animals: Male F344 rats were used, each group consisting of 5 animals.\nDrug preparation and administration: the compound of Example 19(b) was dissolved in distilled water and administered subcutaneously to the rats in a volume of 0.4 ml per 100 g of body weight at 09:00 for 4 days. Twenty-four hours after the final dose the rats were anesthetized with diethyl ether and their blood and organs were collected, weighed and used for pathological examination."}, "Balb/3T3 cells": {"system": "Balb/3T3 cells", "settings": "10 min, 500 µM", "procedure": "Balb/3T3 cells were incubated in Dulbecco's modified Eagle medium (glucose-rich) containing 100/o v/v bovine fetal serum. […] The sample was then dissolved in a buffer solution prepared by the further addition of 4 mM of calcium chloride to the buffer solution mentioned above. If the sample was difficult to dissolve in water, it was dissolved first in dimethyl sulphoxide (DMSO) and then the resulting solution was diluted with the buffer (the final concentration of DMSO was determined to be 0.1%). The cell suspension was preincubated at 30° C for 5 minutes, and 100 µℓ of this suspension were added to 100 µℓ of the sample solution to initiate enzymatic reaction. After incubation at 30° C for 10 minutes, 20 µℓ of 1 N aqueous hydrochloric acid was added to stop the reaction. The reaction mixture was then centrifuged at 3000 rpm for 3 minutes to obtain 100 µℓ of the supernatant. Cyclic 3',5'-adenosine monophosphate (cAMP) contained in the supernatant was quantitatively analyzed by radioimmunoassay using a Yamasa cAMP radioimmunoassay kit YSI-7701. The CAMP accumulating effect is reported as the ratio between the value measured using a test compound and that measured in the control."}, "[4]": {"parameters": "species or system Male albino rabbits", "settings": "rabbit, in vivo", "method": "Animals: Male albino rabbits, each weighing about 2.5 kg, were used in a group of 5 animals.\nDrug preparation and administration: the compound of Example 19(b) was dissolved in a 0.1 M sodium phosphate buffer (pH 7.2) and administered topically to one eye of the rabbit twice a day at […] and 16:00 for one week, although the administration at 16:00 on the final day was not carried out. The other group was left intact as a control. Four hours after the final administration at 09:00, blood was collected from the marginal ear vein of the rabbit in a syringe, and was centrifuged to obtain the serum.\nBiochemical analysis of the serum: the rabbit serum was biochemically analyzed for trigly.ceride (TG), total cholesterol (T-CHO), alkaline phosphatase (ALP), total protein (TP), phospholipid (PL), urea nitrogen (UN), glucose (GLU), transaminase (GOT and GPT), albumin (ALB), total calcium (CA), inorganic phosphorus (IP), creatinine (CRE), and ratio of albumin to globulin (A/G). The analysis was carried out by using an autoanalyzer (HITACHI, Japan).", "remark": "listed apart in the source"}}, "data": [{"smiles": "CC(=O)Oc1ccc(COC(=O)C23C=C(C(O)C(=O)O)OC2C(O)C(n2cnc4c(N)ncnc42)O3)cc1", "note": "(centres unmarked) [Example 19(b), 9'-(4-Acetoxybenzyl) griseolate]", "values": [{"measurement": "IP", "setting": "[1]", "result": "5.1 ± 0.5", "unit": "mg/dL"}, {"measurement": "IOP of test eye", "setting": "[2]; 50 µℓ, 90 minutes after application, before water loading, control eye 17.1 ± 1.1", "result": "16.8 ± 1.0", "unit": "mmHg"}, {"measurement": "IOP of test eye", "setting": "[2]; 0.5 hours after water loading (60 ml/kg per os), control eye 28.7 ± 1.8, p < 0.05", "result": "25.6 ± 2.2", "unit": "mmHg"}, {"measurement": "IOP of test eye", "setting": "[2]; 1.0 hours after water loading, control eye 26.3 ± 2.4, p < 0.05", "result": "22.6 ± 2.3", "unit": "mmHg"}, {"measurement": "IOP of test eye", "setting": "[2]; 1.5 hours after water loading, control eye 20.3 ± 1.6, p < 0.05", "result": "17.5 ± 1.2", "unit": "mmHg"}, {"measurement": "IOP of test eye", "setting": "[2]; 2.0 hours after water loading, control eye 17.4 ± 1.5", "result": "17.1 ± 1.1", "unit": "mmHg"}, {"measurement": "IOP of test eye", "setting": "[2]; 2.5 hours after water loading, control eye 17.4 ± 1.9, p < 0.05", "result": "15.6 ± 1.5", "unit": "mmHg"}, {"measurement": "irritation to the eyes", "setting": "eyes", "result": "No significant stimulus was observed"}, {"measurement": "IOP of test eye", "setting": "[3]; 25 µℓ three times every two minutes, one hour after application, control eye 20.7 ± 1.4", "result": "19.5 ± 1.4", "unit": "mmHg"}, {"measurement": "IOP of test eye", "setting": "[3]; 2 hours after application, control eye 21.4", "result": "19.3 ± 1.3", "unit": "mmHg"}, {"measurement": "IOP of test eye", "setting": "[3]; 5 hours after application, control eye 22.8 ± 0.5", "result": "20.6 ± 0.7", "unit": "mmHg"}, {"measurement": "death rate", "setting": "Male F344 rats; dose 6.25 mg/kg subcutaneously for 4 days", "result": "0/5"}, {"measurement": "death rate", "setting": "Male F344 rats; dose 12.5 mg/kg subcutaneously for 4 days", "result": "0/5"}, {"measurement": "death rate", "setting": "Male F344 rats; dose 25 mg/kg subcutaneously for 4 days", "result": "0/5"}, {"measurement": "death rate", "setting": "Male F344 rats; dose 50 mg/kg subcutaneously for 4 days", "result": "5/5"}, {"measurement": "cAMP accumulating effect", "setting": "Balb/3T3 cells", "result": 16}, {"measurement": "A/G", "setting": "[4]", "result": "15.6 ± 2.5"}, {"measurement": "ALB", "setting": "[4]", "result": "5.0 ± 0.1", "unit": "g/dL"}, {"measurement": "ALP", "setting": "[4]", "result": "379.0 ± 49.0", "unit": "IU/ℓ"}, {"measurement": "CA", "setting": "[4]", "result": "14.0 ± 0.2", "unit": "mg/dL"}, {"measurement": "CRE", "setting": "[4]", "result": "0.90 ± 0.05", "unit": "mg/dL"}, {"measurement": "GLU", "setting": "[4]", "result": "137.0 ± 3.0", "unit": "mg/dL"}, {"measurement": "GOT", "setting": "[4]", "result": "9.6 ± 1.5", "unit": "IU/ℓ"}, {"measurement": "GPT", "setting": "[4]", "result": "19.6 ± 3.9", "unit": "IU/ℓ"}, {"measurement": "PL", "setting": "[4]", "result": "91.8 ± 4.6", "unit": "mg/dL"}, {"measurement": "T-CHO", "setting": "[4]", "result": "45.0 ± 3.2", "unit": "mg/dL"}, {"measurement": "TG", "setting": "[4]", "result": "58.4 ± 5.4", "unit": "mg/dL"}, {"measurement": "TP", "setting": "[4]", "result": "5.3 ± 0.2", "unit": "g/dL"}, {"measurement": "UN", "setting": "[4]", "result": "17.9 ± 0.9", "unit": "mg/dL"}]}]}
